Measurements: patent US6890305B2, “Reagent and method for measuring lung function” (Cambridge Isotope Laboratories, priority 2002, dated 2005)

Assay: 13C-sodium bicarbonate breath test in one asthma patient, pre vs post inhaler medication
Type: in vivo, human
Settings: breath test 45 minutes post medication vs pre-medication, advair and albuterol taken together, FIG. 4
Description: FIG. 3 exemplifies two such breath curves.
In this embodiment, the slope of the Δ ^13CO2 curve at time points t1 and t2 is calculated according to the following equation: slope={(Δ ^13CO2)2−(Δ ^13CO2)1}/(t2−t1)
As an example, the slope of the curve of FIG. 4 can be measured at the 10 minute time point and the 20 minute time point, to give a variable for determining lung function. […] It can be seen from FIG. 4 that the individual post-medication curve has a steeper slope for the 10 and 20 minute time point interval than prior to the medication, indicating an improved lung function. These specific time values are exemplary only and other time periods or half life of the disappearance curve can be used.
This example describes the monitoring of the reduction in airway resistance in one asthma patient following inhaler medication therapy—advair (fluticasone propionate 100 mcg and salmeterol 50 mcg inhalation powder) and albuterol (racemic (α^1-[(tert-butylamino)methyl]-4-hydroxy-m-xylene-α,α′-diol, commercially available as Ventolin®, Proventil®) a relatively selective beta2-adrenergic bronchodilator.
A breath test was performed at 7 am before the patient ingested any asthma medication. The medication was taken at 8:15 am.

CC(C)(C)NCC(O)c1ccc(O)c(CO)c1 (racemic) [albuterol]
AUC of expired Δ13CO2 breath curve (cumulative ‰×h), post vs pre medication: improvement | slope of Δ13CO2 breath curve between 10-20 minutes, post vs pre medication: possibly the slope (steepening)
